Assay results from publication PMC11045757, “Group 3 medulloblastoma transcriptional networks collapse under domain specific EP300/CBP inhibition” (Nature Communications, 2024).
Values joined by “and” are separate entries in the source; they are usually repeats but may differ in a detail not shown here. Identical values can stand only once. Like-named read-outs stand apart in the source and are kept apart here.

Legend:
[1] = test system: HDMB03 (HDMBO3) group 3 medulloblastoma cells; assay: CellTiter-Glo dose-response growth assay; type: cell-based; settings: HDMBO3 G3MB cell growth, read-out: IC50 (nM) HDMBO3
Method: CellTiter-Glo assay was performed as per the manufacturer’s instructions, at the noted timepoint after compound treatment or plating. For Kelly, TE617T, RhJT, NCIH2122, NCIH650 and 143B, 500 cells were plated in normal growth media per well in a 384-well plate (Corning). HDMB03 and MB002 cells were plated in growth media at 500 cells/well in a 384-well plate. […] Cells were incubated for the noted timepoints prior to performing CellTiter-Glo assay as per the manufacturer’s instructions, and reading plates on an Envision 2104 microplate reader.

BRD4-BD1 (BRD4-1) [2] = biological target: T1, BRD4-BD1 (BRD4-1) (Homo sapiens, UniProt O60885); assay: Differential scanning fluorimetry (DSF) thermal shift; type: binding; settings: DSF; for ∆Tm (°C) BRD4-1: 5 μM protein, 100 μM compound, three independent experiments, average ± SD; for ΔTm (°C) BRD4-BD1: Figure 3A
T1 construct: BRD4-BD1 (residues 44-168); 6xHis (cleaved yes); host or cells: E. coli BL21 (DE3) RIL
Method: (§1) At OD600 of 0.6, the culture was cooled down to 18 °C and induced with 0.1 mM IPTG. After 18 h growth, the culture was harvested by centrifugation at 6000 × g for 25 min and stored at -80 °C. Harvested cell pellets were re-suspended in 50 mM Na/K phosphate buffer (pH 7.4) containing 100 mM NaCl, 40 mM imidazole, 0.01% w/v lysozyme and 0.01% v/v Triton X-100 at 4 °C for 1 h, subjected to sonication and the lysate was clarified by centrifugation (30,000 × g for 45 min at 4 °C). Proteins were purified by FPLC at 4 °C using columns and chromatography materials from GE Healthcare. […] Proteins were purified to homogeneity by size exclusion chromatography using Superdex 75 equilibrated with elution buffer (50 mM HEPES pH 7.5, 100 mM NaCl, 2 mM DTT). All BRDs eluted as monomeric protein and were of crystallization grade quality (>95% purity as judged by SDS-PAGE). Pool fractions were combined, concentrated to 10–12 mg/ml, and aliquots were flash-frozen in liquid N2 and stored at −80 °C.
(§2) DSF experiments were performed with an Applied Biosystem StepOnePlus real-time PCR system (Thermo Fisher Scientific) using 96-well format plates, assayed in quadruplicate. For thermal shift determination, 5 μM protein was mixed with 100 μM compound in 50 mM HEPES, pH 7.5, 150 mM NaCl, 2 mM DTT, 2% DMSO, 5X SYPRO Orange (Thermo Fisher Scientific) in 20 μL reaction volumes. Reaction mixtures were heated from 25 to 95 °C at 1 °C/min with fluorescence readings every 0.5 °C at 610 nm. The observed thermal shift (ΔTm) was recorded as the difference between the Tm of sample and DMSO reference wells.

EP300 bromodomain = biological target: T2, EP300 bromodomain (Homo sapiens, UniProt Q09472); assay: as above; type: binding; settings: DSF; for ∆Tm (°C) EP300: 5 μM protein, 100 μM compound, three independent experiments, average ± SD; for ΔTm (°C) EP300: Figure 3B
T2 construct: 6xHis (cleaved yes); host or cells: E. coli BL21 (DE3) RIL
T2 sequence (Q09472 1048-1161): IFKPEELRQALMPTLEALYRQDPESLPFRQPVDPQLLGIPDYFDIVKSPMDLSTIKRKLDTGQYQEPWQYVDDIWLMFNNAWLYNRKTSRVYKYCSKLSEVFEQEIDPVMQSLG
Method: as §1, §2

CBP bromodomain [3] = biological target: T3, CBP bromodomain (Homo sapiens, UniProt Q92793); assay: as above; type: binding; settings: for ∆Tm (°C) CBP / ΔTm (°C) CBP: DSF; for ∆Tm (°C) CBP: 5 μM protein, 100 μM compound, three independent experiments, average ± SD; for DSF ΔTm (°C): Figure 3C, DSF (values equal CBP column)
T3 construct: CBP (residues 1081-1197); 6xHis (cleaved yes); host or cells: E. coli BL21 (DE3) RIL
T3 sequence (Q92793 1081-1197): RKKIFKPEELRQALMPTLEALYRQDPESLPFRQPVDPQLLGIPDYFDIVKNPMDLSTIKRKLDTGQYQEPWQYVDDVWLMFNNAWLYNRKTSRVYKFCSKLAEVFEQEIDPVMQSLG
Method: as §1, with “After” for “At OD600 of 0.6, the culture was cooled down to 18 °C and induced with 0.1 mM IPTG. After”, “All BRDs eluted as monomeric protein and were of crystallization grade quality (>95% purity as judged by SDS-PAGE).” left out
(§3) DSF experiments were performed with an Applied Biosystem StepOnePlus real-time PCR system (Thermo Fisher Scientific) using 96-well format plates, assayed in quadruplicate. For thermal shift determination, 5 μM protein was mixed with 100 μM compound in 50 mM HEPES, pH 7.5, 150 mM NaCl, 2 mM DTT, 2% DMSO, 5X SYPRO Orange (Thermo Fisher Scientific) in 20 μL reaction volumes.

CBP bromodomain [4] = assay: as above; type: binding; settings: ΔTm (CBP)/ΔTm(BRD4)
Method: as §1, with “After” for “At OD600 of 0.6, the culture was cooled down to 18 °C and induced with 0.1 mM IPTG. After”, “All BRDs eluted as monomeric protein and were of crystallization grade quality (>95% purity as judged by SDS-PAGE).” left out
as §3

BRD4-BD1 (BRD4-1) [5] = biological target: T1, BRD4-BD1 (BRD4-1); assay: Isothermal titration calorimetry (ITC); type: binding; settings: relative to CCS1477
Method: as §1
All experiments were conducted using an PEAQ-ITC calorimeter (Malvern Scientific). BRDs were buffer exchanged using PD10 columns (GE life sciences) into 50 mM HEPES pH7.5 and 100 mM NaCl (ITC buffer) before the experiment and concentrated to ∼10 mg/mL. Experiments were carried out in ITC buffer while stirring at 750 rpm through reverse titration. The microsyringe (40 μL load volume) was loaded with the protein sample (250–600 μM protein in ITC buffer) and inserted into the calorimetric cell (0.2 mL cell volume) consisting of compound (20–60 μM in ITC buffer). All titrations were conducted using an initial control injection of 0.2 μL followed by 13 identical injections (~3 μL per injection) with a duration of 2 s (per injection) and a spacing of 150 s between injections. The ratio of protein/compound was optimized to ensure complete saturation of the titrant before the final injection to ensure proper baseline determination. Data were corrected for dilution and analyzed using the MicroCal Origin software to determine the enthalpies of binding (ΔH) and binding constants as described. Thermodynamic parameters were calculated using the basic equation of thermodynamics (ΔG = ΔH − TΔS = −RTlnKB) where ΔG, ΔH and ΔS are the changes in free energy, enthalpy and entropy of binding, respectively. A single binding site model was used for all ligand-protein interactions.

[6] = biological target: GFP-tagged CBP bromodomain (Homo sapiens, UniProt Q92793); assay: Microscale thermophoresis (MST); type: binding; settings: for Response (Dose Response Curve): MST raw response
GFP-tagged CBP bromodomain, sequence (Q92793 1085-1192 limits assumed): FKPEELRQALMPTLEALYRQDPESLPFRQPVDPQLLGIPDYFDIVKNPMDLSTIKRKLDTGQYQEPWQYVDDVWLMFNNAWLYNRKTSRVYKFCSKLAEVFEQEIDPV
Method: MST experiments were performed in a Monolith NT.115 Pico instrument (NanoTemper Technologies) following published procedures. […] MST traces were recorded using standard parameters: 5 s MST power off, 30 s MST power on and 5 s MST power off. Measurements were taken at -1-0 s (cold region) and 10 s (hot region) and data were analyzed using the NTAnalysis software.

[7] = three independent MST experiments, average ± SD, read-out: Kd (nM) CBP

Compound | ∆Tm (°C) BRD4-1 (BRD4-BD1 (BRD4-1) [2]) | ΔTm (°C) BRD4-BD1 (BRD4-BD1 (BRD4-1) [2]) | ∆Tm (°C) EP300 (EP300 bromodomain) | ΔTm (°C) EP300 (EP300 bromodomain) | ∆Tm (°C) CBP (CBP bromodomain [3]) | ΔTm (°C) CBP (CBP bromodomain [3]; Figure 3A, CBP bromodomain) | ΔTm (°C) CBP (CBP bromodomain [3]; Figure 3B, CBP) | DSF ΔTm (°C) (CBP bromodomain [3]) | Ratio CBP/BRD4 of ∆Tm (CBP bromodomain [4]) | Kd [6, 7] | IC50 ([1]; Homo sapiens, HD-MB03) | other results
COC1CCC(n2c(C3CCCC(=O)N3)nc3cc(-c4c(C)noc4C)ccc32)CC1 (stereo not shown) [Compound 2] | 2.9 ± 0.11 °C | 2.9 °C | 5.6 ± 0.12 °C | 5.6 °C | 5.6 ± 0.05 °C | 5.6 °C | 5.6 °C | 5.6 °C | 1.9 | 1770 ± 234 nM | – | IC50 [1]: > 100000 nM; ∆Tm (°C) BRD4-1 (BRD4-BD1 (BRD4-1) [2]; listed as CCS1447int2): 2.9 °C; ∆Tm (°C) CBP (CBP bromodomain [3]; listed as CCS1447int2): 5.6 °C; reduction of activity against BRD4 (BRD4-BD1 (BRD4-1) [5]): ~ 10 fold; Kd ([6]; MO.Affinity Analysis export, single runs, target clGFP-CBPBRD 5e-8, unit inferred, listed as CCS1477int2, read-out: Kd (fit result of individual MST run)): 1770 nM and 1540 nM and 2010 nM
COC1CCC(n2c(C3CCCC(=O)N3c3ccccc3)nc3cc(-c4c(C)noc4C)ccc32)CC1 (stereo not shown) [Compound 5] | 5.5 ± 0.17 °C | 5.5 °C | 14.8 ± 0.45 °C | 14.8 °C | 14.6 ± 0.16 °C | 14.6 °C | 14.6 °C | 14.6 °C | 2.7 | 31.4 ± 14.2 nM | 108 ± 25 nM | Response (Dose Response Curve) ([6]; Dose 1.52588e-10, single replicate run, listed as iCBP-5): 914.717 and 915.838; Response (Dose Response Curve) ([6]; Dose 3.05176e-10, single replicate run, listed as iCBP-5): 915.243 and 914.96; Response (Dose Response Curve) ([6]; Dose 6.10352e-10, single replicate run, listed as iCBP-5): 914.396 and 915.476; Response (Dose Response Curve) ([6]; Dose 1.2207e-9, single replicate run, listed as iCBP-5): 915.983 and 915.524; Response (Dose Response Curve) ([6]; Dose 2.44141e-9, single replicate run, listed as iCBP-5): 915.86 and 916.029; Response (Dose Response Curve) ([6]; Dose 4.88281e-9, single replicate run, listed as iCBP-5): 914.611 and 915.107; Response (Dose Response Curve) ([6]; Dose 9.76563e-9, single replicate run, listed as iCBP-5): 914.911 and 914.67; Response (Dose Response Curve) ([6]; Dose 1.95313e-8, single replicate run, listed as iCBP-5): 915.602 and 914.588; Response (Dose Response Curve) ([6]; Dose 3.90625e-8, single replicate run, listed as iCBP-5): 913.799 and 914.854; Response (Dose Response Curve) ([6]; Dose 7.8125e-8, single replicate run, listed as iCBP-5): 913.08 and 913.563; Response (Dose Response Curve) ([6]; Dose 1.5625e-7, single replicate run, listed as iCBP-5): 911.965 and 911.667; Response (Dose Response Curve) ([6]; Dose 3.125e-7, single replicate run, listed as iCBP-5): 909.591 and 910.599; Response (Dose Response Curve) ([6]; Dose 6.25e-7, single replicate run, listed as iCBP-5): 911.215 and 910.906; Response (Dose Response Curve) ([6]; Dose 1.25e-6, single replicate run, listed as iCBP-5): 911.169 and 911.287; Response (Dose Response Curve) ([6]; Dose 2.5e-6, single replicate run, listed as iCBP-5): 914.21 and 911.877; Response (Dose Response Curve) ([6]; Dose 5e-6, single replicate run, listed as iCBP-5): 912.484 and 912.12; Kd ([6]; MST, single replicate run, target clGFP-CBPBRD, TargetConcentration 5e-8, MST-Power Medium, unit inferred, read-out: Kd (Fit Results, Fit Model: Kd)): 16.1 nM and 33.7 nM; Bound (Fit Results) ([6]; fitted MST response of bound state, single replicate run, target clGFP-CBPBRD 5e-8, listed as iCBP-5): 911.766 and 911.236; Unbound (Fit Results) ([6]; fitted MST response of unbound state, single replicate run, target clGFP-CBPBRD 5e-8, listed as iCBP-5): 915.376 and 915.584; loss of binding affinity (CBP) ([6]; relative to CCS1477): ~ 10 fold
COC1CCC(n2c(C3CCCC(=O)N3c3cccc(C(C)(C)C)c3)nc3cc(-c4c(C)noc4C)ccc32)CC1 (stereo not shown) [Compound 6] | 3.2 ± 0.13 °C | – | 14.3 ± 0.19 °C | – | 15.3 ± 0.2 °C | – | – | – | 4.8 | 30 ± 21.6 nM | 558 ± 335 nM | –
COC1CCC(n2c(C3CCCC(=O)N3c3ccc4c(c3)OCCO4)nc3cc(-c4c(C)noc4C)ccc32)CC1 (stereo not shown) [Compound 7] | 6.9 ± 0.23 °C | 6.9 °C | 13.5 ± 0.89 °C | 13.5 °C | 15.5 ± 0.14 °C | 15.5 °C | 15.5 °C | 15.5 °C | 2.2 | 17 nM and 16.9 nM | 452 ± 217 nM | Kd ([6]; MO.Affinity Analysis export, single runs, target clGFP-CBPBRD 5e-8, unit inferred, read-out: Kd (fit result of individual MST run)): 15.5 nM and 27.7 nM and 7.4 nM
